Numbers after ± are expanded uncertainties.
Settings: 298 K; 101.33 kPa; Crystal; X-ray diffraction

CCCCCCCCC[NH3+].O=P([O-])(O)O [1-nonylammonium dihydrogen phosphate]
mass density: 1268 ± 2 kg/m3

CCCCCCCC[NH3+].O=P([O-])(O)O [1-octanaminium dihydrogen phosphate]
mass density: 1282 ± 2 kg/m3

Reference: the NIST ThermoML archive (doi:10.1021/je200352g)
